Assay type in all cases: functional
In experiment [1] the test system is Staphylococcus epidermidis. The experiment in a line: Antibacterial activity against oxacillin-resistant Staphylococcus epidermidis after 18 to 24 hrs by disc diffusion assay.
For experiment [2], the system named is Klebsiella pneumoniae. The experiment in a line: Antibacterial activity against Klebsiella pneumoniae after 18 to 24 hrs by disc diffusion assay. Background: Agar diffusion results depend on both activity and mobility in agar.
The test system of experiment [3] is Staphylococcus haemolyticus. The experiment in a line: Antibacterial activity against oxacillin-resistant Staphylococcus haemolyticus after 18 to 24 hrs by disc diffusion assay.
For experiment [4], the system named is Staphylococcus aureus. In words: Antibacterial activity against oxacillin-resistant Staphylococcus aureus after 18 to 24 hrs by disc diffusion assay.
Experiment [5] has as its system Staphylococcus aureus. The experiment in a line: Antibacterial activity against Staphylococcus aureus ATCC 25923 after 18 to 24 hrs by disc diffusion assay.
The test system of experiment [6] is Pseudomonas aeruginosa. In words: Antibacterial activity against Pseudomonas aeruginosa after 18 to 24 hrs by disc diffusion assay.
Experiment [7] deals with Staphylococcus aureus. In words: Antibacterial activity against methicillin-resistant Staphylococcus aureus after 18 to 24 hrs by disc diffusion assay.
Experiment [8] has as its system Staphylococcus aureus. In words: Antibacterial activity against Staphylococcus aureus after 18 to 24 hrs by disc diffusion assay.
Experiment [9] concerns Staphylococcus haemolyticus. In words: Antibacterial activity against oxacillin-resistant Staphylococcus haemolyticus after 18 to 24 hrs by broth macrodilution method.
In experiment [10] the test system is Klebsiella pneumoniae. The experiment in a line: Antibacterial activity against Klebsiella pneumoniae after 18 to 24 hrs by broth macrodilution method.
For experiment [11], the system named is Staphylococcus aureus. In words: Antibacterial activity against methicillin-resistant Staphylococcus aureus after 18 to 24 hrs by broth macrodilution method.
Experiment [12] has as its system Staphylococcus aureus. In words: Antibacterial activity against Staphylococcus aureus ATCC 25923 after 18 to 24 hrs by broth macrodilution method.
For experiment [13], the system named is Pseudomonas aeruginosa. In words: Antibacterial activity against Pseudomonas aeruginosa after 18 to 24 hrs by broth macrodilution method.
Experiment [14] has as its system Staphylococcus aureus. The experiment in a line: Antibacterial activity against Staphylococcus aureus after 18 to 24 hrs by broth macrodilution method.
For experiment [15], the system named is Staphylococcus aureus. The experiment in a line: Antibacterial activity against oxacillin-resistant Staphylococcus aureus after 18 to 24 hrs by broth macrodilution method.
In experiment [16] the test system is Staphylococcus epidermidis. The experiment in a line: Antibacterial activity against oxacillin-resistant Staphylococcus epidermidis after 18 to 24 hrs by broth macrodilution method.

The results in this text go back to ChEMBL document CHEMBL2375322, “Synthesis using microwave irradiation and antibacterial evaluation of new N,O-acetals and N,S-acetals derived from 2-amino-1,4-naphthoquinones” (2013).

Values after ≈ are worked out from the molar mass of the structure shown. Active and inactive are the calls of the source.

Turning to `CC1=C(NCSc2ccccc2)C(=O)c2ccccc2C1=O`, the inhibition result (in experiment [1]; in the experiment on Klebsiella pneumoniae [2]; in experiment [3]; in the experiment with Staphylococcus aureus [4]; in the experiment with Staphylococcus aureus [5]; in the experiment on Pseudomonas aeruginosa [6]) was “inactive” throughout. In addition, the inhibition entry with Staphylococcus aureus [7] and in the experiment with Staphylococcus aureus [8] was “inactive” throughout.
The term MIC denotes the smallest concentration in the dilution series that meets the test's criterion for growth inhibition. A lower MIC goes with inhibition by little substance. In the case of `CCOCNC1=CC(=O)c2ccccc2C1=O`, the “diameter of the inhibition zone (DIZ)” value in experiment [1] is 10 mm; in the experiment on Klebsiella pneumoniae [2] it was 0 mm; in experiment [3], 16 mm; in the experiment on Staphylococcus aureus [4] it was 17 mm; in the experiment with Staphylococcus aureus [5], 15 mm; in the experiment on Pseudomonas aeruginosa [6] it was 14 mm. The “diameter of the inhibition zone (DIZ)” value was 14 mm in the experiment with Staphylococcus aureus [7] and 18 mm in the experiment with Staphylococcus aureus [8]. Moreover, the MIC in experiment [9] is 64 µg/mL (≈ 277 µM); in the experiment on Klebsiella pneumoniae [10], ≥ 256 µg/mL; in the experiment with Staphylococcus aureus [11] it was 32 µg/mL (≈ 138 µM); against Staphylococcus aureus [12] it was 8 µg/mL (≈ 34.6 µM); in the experiment on Pseudomonas aeruginosa [13] it was 128 µg/mL (≈ 554 µM); with Staphylococcus aureus [14], 4 µg/mL (≈ 17.3 µM). Besides, the MIC was found to be 32 µg/mL (≈ 138 µM) against Staphylococcus aureus [15] and 16 µg/mL (≈ 69.2 µM) in experiment [16].
Turning to `O=C(O)c1cn(C2CC2)c2cc(N3CCNCC3)c(F)cc2c1=O` [CIPROFLOXACIN], the “diameter of the inhibition zone (DIZ)” value in the experiment with Klebsiella pneumoniae [2] and in the experiment with Pseudomonas aeruginosa [6] was 22 mm in each case. In addition, the MIC with Klebsiella pneumoniae [10] and with Pseudomonas aeruginosa [13] was 1 µg/mL (≈ 3.02 µM) each time.
With `Cc1ccc(SCNC2=CC(=O)c3ccccc3C2=O)cc1`, the inhibition entry (in [1]; in the experiment on Klebsiella pneumoniae [2]; in experiment [3]; in the experiment with Staphylococcus aureus [4]; with Staphylococcus aureus [5]; in the experiment with Pseudomonas aeruginosa [6]) was “inactive” throughout. Also, the inhibition result in the experiment with Staphylococcus aureus [7] and in the experiment on Staphylococcus aureus [8] was “inactive” throughout.
For `Cc1ccccc1SCNC1=CC(=O)c2ccccc2C1=O`, the inhibition entry (in experiment [1]; in the experiment on Klebsiella pneumoniae [2]; in experiment [3]; with Staphylococcus aureus [4]; in the experiment on Staphylococcus aureus [5]; with Pseudomonas aeruginosa [6]) was “inactive” throughout. For the same compound, the inhibition result with Staphylococcus aureus [7] and in the experiment with Staphylococcus aureus [8] was “inactive” each time.
`O=C1C=C(NCSc2ccc(F)cc2)C(=O)c2ccccc21`: the inhibition result (in experiment [1]; in the experiment on Klebsiella pneumoniae [2]; in [3]; in the experiment with Staphylococcus aureus [4]; in the experiment with Staphylococcus aureus [5]; with Pseudomonas aeruginosa [6]) was “inactive” in each case. The inhibition result with Staphylococcus aureus [7] and in the experiment with Staphylococcus aureus [8] was “inactive” each time.
On to `COCNC1=CC(=O)c2ccccc2C1=O`, for which the “diameter of the inhibition zone (DIZ)” value came to 14 mm in [1]; 17 mm in the experiment with Klebsiella pneumoniae [2]; 20 mm in experiment [3]; 18 mm in the experiment on Staphylococcus aureus [4]; 17 mm with Staphylococcus aureus [5]; 0 mm in the experiment with Pseudomonas aeruginosa [6]. The figures for the “diameter of the inhibition zone (DIZ)” value in the experiment with Staphylococcus aureus [7] and with Staphylococcus aureus [8] were 16 mm and 24 mm, respectively. Besides, the MIC in experiment [9] is 16 µg/mL (≈ 73.7 µM); against Klebsiella pneumoniae [10], 256 µg/mL (≈ 1180 µM); in the experiment on Staphylococcus aureus [11], 16 µg/mL (≈ 73.7 µM); against Staphylococcus aureus [12] it was 16 µg/mL (≈ 73.7 µM); with Pseudomonas aeruginosa [13] it was ≥ 256 µg/mL; against Staphylococcus aureus [14], 16 µg/mL (≈ 73.7 µM). For the same compound, the MIC was 16 µg/mL (≈ 73.7 µM) in the experiment on Staphylococcus aureus [15] and 8 µg/mL (≈ 36.8 µM) in experiment [16].
`CSc1ccc(SCNC2=CC(=O)c3ccccc3C2=O)cc1`: the inhibition result (in experiment [1]; with Klebsiella pneumoniae [2]; in experiment [3]; with Staphylococcus aureus [4]; in the experiment on Staphylococcus aureus [5]; in the experiment on Pseudomonas aeruginosa [6]) was “inactive” in each case. Moreover, the inhibition entry with Staphylococcus aureus [7] and with Staphylococcus aureus [8] was “inactive” in each case.
`CC(C)(C)OCNC1=CC(=O)c2ccccc2C1=O`: the inhibition entry (in [1]; in the experiment with Klebsiella pneumoniae [2]; in [3]; in the experiment on Staphylococcus aureus [4]; with Staphylococcus aureus [5]; with Pseudomonas aeruginosa [6]) was “inactive” throughout. Moreover, the inhibition entry in the experiment on Staphylococcus aureus [7] and in the experiment on Staphylococcus aureus [8] was “inactive” each time.
Take `C#CCOCNC1=CC(=O)c2ccccc2C1=O`: the “diameter of the inhibition zone (DIZ)” value in experiment [1] amounted to 10 mm; with Klebsiella pneumoniae [2], 0 mm; in experiment [3], 18 mm; in the experiment on Staphylococcus aureus [4], 12 mm; in the experiment on Staphylococcus aureus [5], 16 mm; in the experiment with Pseudomonas aeruginosa [6], 18 mm. Besides, the “diameter of the inhibition zone (DIZ)” value worked out at 16 mm with Staphylococcus aureus [7] and 20 mm in the experiment on Staphylococcus aureus [8]. For the same compound, the MIC was 32 µg/mL (≈ 133 µM) in experiment [9]; ≥ 256 µg/mL against Klebsiella pneumoniae [10]; 64 µg/mL (≈ 265 µM) against Staphylococcus aureus [11]; 32 µg/mL (≈ 133 µM) with Staphylococcus aureus [12]; 16 µg/mL (≈ 66.3 µM) against Pseudomonas aeruginosa [13]; 32 µg/mL (≈ 133 µM) against Staphylococcus aureus [14]. Also, the MIC in the experiment on Staphylococcus aureus [15] was found to be 256 µg/mL (≈ 1060 µM); in [16], 16 µg/mL (≈ 66.3 µM).
As to `CC(C)OCNC1=CC(=O)c2ccccc2C1=O`, the inhibition entry (in [1]; in the experiment with Klebsiella pneumoniae [2]; in experiment [3]; with Staphylococcus aureus [4]; with Staphylococcus aureus [5]; in the experiment with Pseudomonas aeruginosa [6]) was “inactive” each time. For the same compound, the inhibition result with Staphylococcus aureus [7] and with Staphylococcus aureus [8] was “inactive” each time.
For `COc1ccc(SCNC2=CC(=O)c3ccccc3C2=O)cc1`, the inhibition entry (in experiment [1]; in the experiment on Klebsiella pneumoniae [2]; in experiment [3]; in the experiment with Staphylococcus aureus [4]; in the experiment with Staphylococcus aureus [5]; in the experiment with Pseudomonas aeruginosa [6]) was “inactive” each time. Besides, the inhibition entry in the experiment on Staphylococcus aureus [7] and with Staphylococcus aureus [8] was “inactive” throughout.
In the case of `O=C1C=C(NCOCc2cn(-c3ccccc3)nn2)C(=O)c2ccccc21`, the inhibition entry (in experiment [1]; in the experiment on Klebsiella pneumoniae [2]; in experiment [3]; in the experiment with Staphylococcus aureus [4]; in the experiment with Staphylococcus aureus [5]; in the experiment on Pseudomonas aeruginosa [6]) was “inactive” throughout. Also, the inhibition entry with Staphylococcus aureus [7] and with Staphylococcus aureus [8] was “inactive” throughout.
As for `O=C1C=C(NCOCc2ccccc2)C(=O)c2ccccc21`, the inhibition result (in [1]; with Klebsiella pneumoniae [2]; in [3]; with Staphylococcus aureus [4]; with Staphylococcus aureus [5]; in the experiment on Pseudomonas aeruginosa [6]) was “inactive” in each case. The inhibition entry in the experiment with Staphylococcus aureus [7] and in the experiment on Staphylococcus aureus [8] was “inactive” throughout.
As for `O=C1C=C(NCSc2ccccc2)C(=O)c2ccccc21`, the inhibition entry (in [1]; in the experiment with Klebsiella pneumoniae [2]; in experiment [3]; in the experiment with Staphylococcus aureus [4]; in the experiment on Staphylococcus aureus [5]; in the experiment with Pseudomonas aeruginosa [6]) was “inactive” each time. For the same compound, the inhibition result with Staphylococcus aureus [7] and in the experiment with Staphylococcus aureus [8] was “inactive” throughout.
Regarding `CCCSCNC1=CC(=O)c2ccccc2C1=O`, the inhibition entry (in experiment [1]; with Klebsiella pneumoniae [2]; in [3]; in the experiment on Staphylococcus aureus [4]; with Staphylococcus aureus [5]; in the experiment on Pseudomonas aeruginosa [6]) was “inactive” throughout. In addition, the inhibition entry with Staphylococcus aureus [7] and with Staphylococcus aureus [8] was “inactive” in each case.
Turning to `CN[C@H](CC(C)C)C(=O)N[C@H]1C(=O)N[C@@H](CC(N)=O)C(=O)N[C@H]2C(=O)N[C@H]3C(=O)N[C@H](C(=O)N[C@H](C(=O)O)c4cc(O)cc(O)c4-c4cc3ccc4O)[C@H](O)c3ccc(c(Cl)c3)Oc3cc2cc(c3O[C@@H]2O[C@H](CO)[C@@H](O)[C@H](O)[C@H]2O[C@H]2C[C@](C)(N)[C@H](O)[C@H](C)O2)Oc2ccc(cc2Cl)[C@H]1O` [VANCOMYCIN], the “diameter of the inhibition zone (DIZ)” value (in experiment [1]; in [3]; in the experiment with Staphylococcus aureus [4]; with Staphylococcus aureus [5]; in the experiment with Staphylococcus aureus [7]; with Staphylococcus aureus [8]) was 16 mm throughout. In addition, 2 µg/mL (≈ 1.38 µM) was the least that counted as inhibitory in experiment [9] (MIC).
